# Molecular target: MASP-2 CCP2-SP (Homo sapiens (Human), UniProt O00187)
# Test: MASP-2 co-crystallization, X-ray crystallography and structure analysis (H-bonds, van der Waals contacts);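 for Ligand-pharmacophore element distance, pharmacophore element C2: distance from averaged pharmacophore element to bound ligand; missing value means element absent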;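 for Ligand-pharmacophore element distance, pharmacophore element C3: distance from averaged pharmacophore element to bound ligand; missing value means element absent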;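 for Ligand-pharmacophore element distance, pharmacophore element C4: distance from averaged pharmacophore element to bound ligand; missing value means element absent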;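 for Ligand-pharmacophore element distance, pharmacophore element C5: distance from averaged pharmacophore element to bound ligand; missing value means element absent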
# Design: van der Waals contact distance, MASP-2 HIS 483 atom CD2 / van der Waals contact distance, MASP-2 HIS 483 atom NE2 / van der Waals contact distance, SER 654 C to compound atom / van der Waals contact distance, SER 654 O to compound atom / van der Waals contact distance, TRP 655 C to compound atom / van der Waals contact distance, MASP-2 GLY 528 atom CA / van der Waals contact distance TRP 655 atom CZ3 / van der Waals contact distance TRP 655 atom N / van der Waals contact distance TRP 655 atom CE3 / van der Waals contact distance GLY 656 atom C / van der Waals contact distance GLY 656 atom CA / van der Waals contact distance GLY 656 atom O / van der Waals contact distance, MASP-2 TYR 607 atom CD1 / van der Waals contact distance, MASP-2 PRO 606 atom O / d(C3,CA1) / d(CA1,N1)2 / d(H4,O1) / d(H4,O2) / d(O1,O2) / d(CA1,O2) / d(CA6,O1) / d(CA6,O2) / d(CA1,C5) / d(O2,H3) / d(N2,C2) / d(CA5,N2) / d(N2,C4) / d(N2,C6) / d(N2,CA3) / d(N2,O3) / d(O4,H2): unit not given beside the values
# Conditions: for Ligand-pharmacophore element distance, pharmacophore element C2 / Ligand-pharmacophore element distance, pharmacophore element C3 / Ligand-pharmacophore element distance, pharmacophore element C4 / Ligand-pharmacophore element distance, pharmacophore element C5 / Ligand-pharmacophore element distance, pharmacophore element C6 / Ligand-pharmacophore element distance, pharmacophore element C7 / Ligand-pharmacophore element distance, pharmacophore element CA1 / Ligand-pharmacophore element distance, pharmacophore element CA2 / Ligand-pharmacophore element distance, pharmacophore element CA3 / Ligand-pharmacophore element distance, pharmacophore element CA4 / Ligand-pharmacophore element distance, pharmacophore element CA5 / Ligand-pharmacophore element distance, pharmacophore element CA6: Table A4-1; for d(N2,C2) / d(N2,CA2) / d(O2,H3) / d(O2,N2): Table A5-2 pharmacophore distance, S3/S4 region; for a(O1, O2, H3) / a(O1, O2, N2) / a(O2, N2, C2) / a(O2, N2, CA2): Table A6-2 pharmacophore angle; for Pharmacophore torsion angle a(O1, O2, N2, CA2) / Pharmacophore torsion angle a(O1, O2, N2, CA4): Table A7-2; for a(N1, CA1, O1) b): Methyl-amino-pyridine compounds
# Procedure, shortened: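 Inhibitor complexes were obtained by soaking crystals of E. coli-derived human MASP-2 CCP2-SP. Synchrotron diffraction at 1.0 wavelength, molecular replacement and partial refinement gave the models; one pose per ligand was chosen for contact analysis.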
# [1] = Table A5-1 pharmacophore: distance between elements, S2/S1 region
# [2] = Table A7-1, between pharmacophore elements of the bound compound
# [3] = between pharmacophore elements of the bound compound
# Chain of MASP-2 CCP2-SP (O00187 445-686): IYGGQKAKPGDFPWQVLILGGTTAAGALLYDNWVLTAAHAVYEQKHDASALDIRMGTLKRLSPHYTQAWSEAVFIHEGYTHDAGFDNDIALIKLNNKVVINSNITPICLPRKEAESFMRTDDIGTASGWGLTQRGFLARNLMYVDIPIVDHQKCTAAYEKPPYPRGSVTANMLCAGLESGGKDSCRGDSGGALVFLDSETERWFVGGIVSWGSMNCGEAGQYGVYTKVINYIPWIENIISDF
# Chain of MASP-2 CCP2-SP (O00187 364-432 partner): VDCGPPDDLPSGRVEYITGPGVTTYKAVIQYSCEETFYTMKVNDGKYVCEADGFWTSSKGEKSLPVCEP
smiles,measurement,setting,value
C[C@H](NC(=O)[C@H]1C[C@@H](c2ccccc2)CCN1)C(=O)NCc1cc(Cl)ccc1O.Cl [1078_8],"Ligand-pharmacophore element distance, pharmacophore element C2",,0.85
same,"Ligand-pharmacophore element distance, pharmacophore element C3",,0
same,"Ligand-pharmacophore element distance, pharmacophore element C4",,0
same,"Ligand-pharmacophore element distance, pharmacophore element C5",,0.78
same,"Ligand-pharmacophore element distance, pharmacophore element C6",,0
same,"Ligand-pharmacophore element distance, pharmacophore element C7",,0
same,"Ligand-pharmacophore element distance, pharmacophore element CA1",,1.67
same,"Ligand-pharmacophore element distance, pharmacophore element CA2",,0.92
same,"Ligand-pharmacophore element distance, pharmacophore element CA3",,0
same,"Ligand-pharmacophore element distance, pharmacophore element CA4",,0
same,"Ligand-pharmacophore element distance, pharmacophore element CA5",,0
same,"Ligand-pharmacophore element distance, pharmacophore element CA6",,0
same,"d(CA1,C5)",[1],3.10
same,"d(CA1,O1)",[1],4.33
same,"d(CA1,O2)",[1],4.59
same,"d(CA1,O4)",[1],2.75
same,"d(H4,O1)",[1],2.28
same,"d(H4,O2)",[1],2.53
same,"d(O1,O2)",[1],2.73
same,"d(O4,H2)",[1],0.98
same,"d(N2,C2)",,1.44
same,"d(N2,CA2)",,5.66
same,"d(O2,H3)",,2.69
same,"d(O2,N2)",,2.85
same,"a(C5, CA1, O1)",Table A6-1 pharmacophore angle,159.05
same,"a(CA1, O1, O2)",Table A6-1 pharmacophore angle,112.99
same,"a(CA1, O4, H2)",Table A6-1 pharmacophore angle,125.48
same,"a(O1, CA1, O4)",Table A6-1 pharmacophore angle,73.28
same,"a(O1, O2, H4)",Table A6-1 pharmacophore angle,111.09
same,"a(O1, O2, H3)",,140.66
same,"a(O1, O2, N2)",,145.13
same,"a(O2, N2, C2)",,125.44
same,"a(O2, N2, CA2)",,153.81
same,"Pharmacophore torsion angle a(C5, CA1, O1, H4)",[2],5.11
same,"Pharmacophore torsion angle a(H4, O1, O2, H3)",[2],−134.33
same,"Pharmacophore torsion angle a(H4, O1, O2, N2)",[2],−122.87
same,"Pharmacophore torsion angle a(O1, H4, O2, CA1)",[2],−58.50
same,"Pharmacophore torsion angle a(O1, O2, N2, C2)",[2],135.84
same,"Pharmacophore torsion angle a(O1, O2, N2, CA2)",[3],143.43
"Cc1nc(N)ccc1CNC(=O)[C@H](C)NC(=O)[C@H]1C[C@H](Cc2cccc(-c3ccccc3)c2)CN1 [compound 1406, (2R,4S)-4-([1,1′-Biphenyl]-3-ylmethyl)-N—((S)-1-(((6-amino-2-methylpyridin-3-yl)methyl)amino)-1-oxopropan-2-yl)pyrrolidine-2-carboxamide Dihydrochloric acid]",H-bond distance to MASP-2 ASP 627 atom OD2,"Table A1 (H-Bonds), ASP 627 OD2",3.22
same,H-bond distance to MASP-2 GLY 656 atom N,"Table A1 (H-Bonds), GLY 656 N",3.28
same,H-bond distance to MASP-2 GLY 656 atom O,"Table A1 (H-Bonds), GLY 656 O",2.76
same,H-bond distance to MASP-2 SER 654 atom O,"Table A1 (H-Bonds), SER 654 O",2.96
same,H-bond distance to MASP-2 SER 657 atom O,"Table A1 (H-Bonds), SER 657 O",2.78
same,"van der Waals contact distance, MASP-2 amino acid atom to compound atom",Table A2,3.74
same,"van der Waals contact distance, MASP-2 ASP 526 atom C",Table A2-1,3.55
same,"van der Waals contact distance, MASP-2 ASP 526 atom CA",Table A2-1,3.89
same,"van der Waals contact distance, MASP-2 ASP 526 atom O",Table A2-1,3.69
same,"van der Waals contact distance, MASP-2 HIS 483 atom CD2",Table A2-1,3.7
same,"van der Waals contact distance, MASP-2 HIS 483 atom NE2",Table A2-1,3.67
same,"van der Waals contact distance, MASP-2 ALA 527 atom C",Table A2-2,3.68
same,"van der Waals contact distance, MASP-2 ALA 527 atom CA",Table A2-2,3.83
same,"van der Waals contact distance, MASP-2 amino acid atom to compound atom","Table A2-7: SER 628 (CB, O, OG)",3.76
same,"van der Waals contact distance, SER 654 C to compound atom",Table A2-11,3.59
same,"van der Waals contact distance, VAL 653 CG1 to compound atom",Table A2-11,3.27
same,van der Waals contact distance TRP 655 atom CE3,"Table A2-13, MASP-2 TRP 655 CE3, compound atom in line below",3.7
same,van der Waals contact distance TRP 655 atom CZ3,"Table A2-13, MASP-2 TRP 655 CZ3",3.51
same,van der Waals contact distance TRP 655 atom N,"Table A2-13, MASP-2 TRP 655 N",3.85
same,"Ligand-pharmacophore element distance, pharmacophore element C2",,0
same,"Ligand-pharmacophore element distance, pharmacophore element C3",,0.12
same,"Ligand-pharmacophore element distance, pharmacophore element C4",,0
same,"Ligand-pharmacophore element distance, pharmacophore element C5",,0
same,"Ligand-pharmacophore element distance, pharmacophore element C6",,0
same,"Ligand-pharmacophore element distance, pharmacophore element C7",,0
same,"Ligand-pharmacophore element distance, pharmacophore element CA1",,0.56
same,"Ligand-pharmacophore element distance, pharmacophore element CA2",,0.42
same,"Ligand-pharmacophore element distance, pharmacophore element CA3",,0
same,"Ligand-pharmacophore element distance, pharmacophore element CA4",,1.59
same,"Ligand-pharmacophore element distance, pharmacophore element CA5",,0
same,"Ligand-pharmacophore element distance, pharmacophore element CA6",,0
same,"d(C3,CA1)",[1],2.86
same,"d(CA1,N1)2",[1],1.38
same,"d(CA1,O1)",[1],4.36
same,"d(CA1,O2)",[1],4.00
same,"d(H4,O1)",[1],4.35
same,"d(H4,O2)",[1],3.89
same,"d(O1,O2)",[1],3.29
same,"d(N2,CA2)",,5.98
same,"d(O2,H3)",,4.44
same,"d(O2,N2)",,2.64
same,"a(C3, CA1, O1)",Table A6-1 pharmacophore angle,149.47
same,"a(CA1, O1, O2)",Table A6-1 pharmacophore angle,107.31
same,"a(O1, O2, H4)",Table A6-1 pharmacophore angle,133.28
same,"a(N1, CA1, O1) b)",Table A6-1 pharmacophore angle,173.92
same,"a(O1, O2, H3)",,147.38
same,"a(O1, O2, N2)",,140.17
same,"a(O2, N2, CA2)",,156.30
same,"Pharmacophore torsion angle a(C3, CA1, O1, H4)",[2],23.93
same,"Pharmacophore torsion angle a(H4, O1, O2, H3)",[2],50.99
same,"Pharmacophore torsion angle a(H4, O1, O2, N2)",[2],135.75
same,"Pharmacophore torsion angle a(N1, CA1, O1, H4)",[2],−2.51
same,"Pharmacophore torsion angle a(O1, H4, O2, CA1)",[2],−83.05
same,"Pharmacophore torsion angle a(O1, O2, N2, CA2)",[3],127.54
same,"Pharmacophore torsion angle a(O1, O2, N2, CA4)",[3],102.90
Cc1nc(N)ccc1CNC(=O)C(C)NC(=O)C1CC(c2cccc3ccccc23)CCN1.Cl.Cl (stereo not shown) [1297_1],"Ligand-pharmacophore element distance, pharmacophore element C2",,0.34
same,"Ligand-pharmacophore element distance, pharmacophore element C3",,0.3
same,"Ligand-pharmacophore element distance, pharmacophore element C4",,0
same,"Ligand-pharmacophore element distance, pharmacophore element C5",,0
same,"Ligand-pharmacophore element distance, pharmacophore element C6",,0
same,"Ligand-pharmacophore element distance, pharmacophore element C7",,0
same,"Ligand-pharmacophore element distance, pharmacophore element CA1",,0.39
same,"Ligand-pharmacophore element distance, pharmacophore element CA2",,0.19
same,"Ligand-pharmacophore element distance, pharmacophore element CA3",,0
same,"Ligand-pharmacophore element distance, pharmacophore element CA4",,1.24
same,"Ligand-pharmacophore element distance, pharmacophore element CA5",,0
same,"Ligand-pharmacophore element distance, pharmacophore element CA6",,0
same,"d(C3,CA1)",[1],2.87
same,"d(CA1,N1)2",[1],1.39
same,"d(CA1,O1)",[1],4.35
same,"d(CA1,O2)",[1],3.86
same,"d(H4,O1)",[1],4.31
same,"d(H4,O2)",[1],3.81
same,"d(O1,O2)",[1],3.46
same,"d(N2,C2)",,1.44
same,"d(N2,CA2)",,5.68
same,"d(O2,H3)",,4.23
same,"d(O2,N2)",,2.71
same,"a(C3, CA1, O1)",Table A6-1 pharmacophore angle,149.59
same,"a(CA1, O1, O2)",Table A6-1 pharmacophore angle,107.14
same,"a(O1, O2, H4)",Table A6-1 pharmacophore angle,130.08
same,"a(N1, CA1, O1) b)",Table A6-1 pharmacophore angle,174.57
same,"a(O1, O2, H3)",,144.22
same,"a(O1, O2, N2)",,143.88
same,"a(O2, N2, C2)",,130.88
same,"a(O2, N2, CA2)",,156.06
same,"Pharmacophore torsion angle a(C3, CA1, O1, H4)",[2],30.15
same,"Pharmacophore torsion angle a(H4, O1, O2, H3)",[2],50.42
same,"Pharmacophore torsion angle a(H4, O1, O2, N2)",[2],137.09
same,"Pharmacophore torsion angle a(N1, CA1, O1, H4)",[2],26.85
same,"Pharmacophore torsion angle a(O1, H4, O2, CA1)",[2],−85.98
same,"Pharmacophore torsion angle a(O1, O2, N2, C2)",[2],117.40
same,"Pharmacophore torsion angle a(O1, O2, N2, CA2)",[3],131.38
same,"Pharmacophore torsion angle a(O1, O2, N2, CA4)",[3],110.58

# — US12195427B2, “MASP-2 inhibitors and methods of use” (priority 2018, dated 2025)
